The text below walks through data of patent publication US9963474B2, “Mitochondria-targeted dicarbonyl sequestering compounds” (MEDICAL RESEARCH COUNCIL, priority 2013, dated 2018).

Series [1] relates to horse-radish peroxidase (HRP). The series can be described thus: Stability under oxidative conditions (HRP and hydrogen peroxide). Type of series: physicochemical. Here is the method:
MitoG 100 μM was mixed with 0.07 U horse-radish peroxidase (HRP) in a 1 ml curvette containing 100 mM potassium phosphate buffer (pH 6.0) and 0.5% (w/v) hydrogen peroxide at room temperature. A reference curvette and a blank were similarly set up with DMSO in place of MitoG. Scanning UV/Vis spectra were then taken at 1 min, 5 min and 10 min after mixing using a spectrophotometer (Shimadzu UV-2501PC). Spectra of MitoG-containing mixtures were compared against the spectrum of the blank. To determine if any reaction observed could be prevented by the HRP inhibitor, NaN3 [58, 59] separate incubations were set up as above but containing 8 mg/ml NaN3 as well.
Oxidative degradation of o-phenylenediamine is known to result in the production of methylglyoxal and glyoxal. This oxidative degradation can lead to an overestimation of dicarbonyl levels in samples if o-phenylenediamine is used to try to quantify methylglyoxal and glyoxal levels in biological samples. To determine if MitoG could undergo similar oxidative degradation to methylglyoxal and glyoxal, MitoG was incubated with HRP and hydrogen peroxide in vitro. Scanning UV/Vis spectra of the reaction mixture were taken before and after the addition of HRP. HRP was used as a representative peroxidase that could catalyse an oxidative degradation in a cellular environment. […] These changes are prevented by the HRP inhibitor, NaN3.

Series [2] has as its system BAECs. Put plainly: Cell survival, MTS assay, BAECs. Conditions: BAEC, 24 h. Type of series: cell-based, bovine. Here is the method: (A, B) RLM respiring on glutamate/malate at 37° C. were incubated with various concentrations of MitoG for 7 min in an oxygen electrode to measure coupled respiration (A) before ADP was added to measure phosphorylating respiration (B). Data are the percentage of the respiration rates of untreated controls (dashed lines). (C and D) C2C12 cells (C) or BAECs [Bovine Aortic Endothelial Cells; Cell Applications Inc, San Diego, Calif.] (D) were incubated with MitoG for 24 h and cell survival was then determined using the MTS assay. Data are expressed as a percentage of the untreated controls (dashed line). (E-H) BAECs were incubated with MitoG for 2 h at 37° C. and the cellular oxygen consumption rate (OCR) after the sequential additions of oligomycin, FCCP and antimycin A/rotenone were then measured using a Seahorse XF24 analyser. (E) OCR due to ATP synthesis, (F) OCR due to proton leak, (G) reserve capacity and (H) non-mitochondrial oxygen consumption. Results are means±S.E. of three independent experiments. *, P<0.05 or **, P<0.01 relative to untreated controls.
To assess cell viability, C2C12 cells or BAECs were seeded at a density of 10,000 cells/well and 40,000 cells/well, respectively, in 96-well plates. […] After 2 h absorbance was read at 490 nm in a plate reader (SpectraMax Plus 384, Molecular Devices). […]
(Formazan colour is commonly taken as a measure of viable cells.)

A short description of series [3]: Reaction rate with glyoxal (fluorometric kinetics). Conditions: 37° C., means±SE, n=3. Here is the method:
(A) The reactions between MitoG (100 μM) and 1,2-dicarbonyls (25 μM) at 37° C. were followed from the formation of the quinoxaline products at 345 nm. (B) Fluorimetric detection of the reaction between MitoG and methylglyoxal (40 μM each), and between MitoG and glyoxal (200 μM each) was observed by monitoring the quinoxaline products at excitation and emission wavelengths of 344 and 433 nm, respectively. The changes in fluorescence caused by MQE and QE formation was quantified from calibration curves constructed by plotting fluorescence (excitation and emission wavelengths of 344 and 433 nm, respectively) against known amounts of either quinoxaline and were linear up to at least 20 μM.
TPP-conjugated compounds were made up as 10 mM stock solutions in DMSO, flushed with argon and stored as aliquots at −20° C. […] The molar extinction coefficients were calculated from the absorbance at maximal absorption (λmax) for the compounds for solutions of known concentration. Reaction rates between MitoG and 1,2-dicarbonyls were determined from the initial linear slope over the first 30 s at the λmax for the formation of the relevant quinoxaline. Fluorescence spectra were obtained in 2.5 ml KCl buffer using a Shimadzu RF-301PC fluorimeter with slit widths of 3 nm. […]

Turning to `Nc1ccc(OCCCCCC[P+](c2ccccc2)(c2ccccc2)c2ccccc2)cc1N` [MitoG, (6-(3,4-Diaminophenoxy)hexyl)triphenylphosphonium chloride], in series [1] (100 μM, 0.07 U HRP, 0.5% hydrogen peroxide, pH 6.0, room temperature), the “degradation in the presence of HRP” value was “degrades in the presence of HRP”. Also, the “oxidative degradation to methylglyoxal and glyoxal” value in series [1] (HRP and hydrogen peroxide, product absorbs at 430 nm) was “does not undergo oxidative degradation to form methylglyoxal and glyoxal”. The “concentration above which cell viability decreased” value in series [2] is > 50 µM. The “rate constant for reaction with glyoxal” value in series [3] amounted to 0.6 ± 0.3 M⁻¹ s⁻¹.
